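Step 1: Grow cells in 96-well plates. Step 2: Expose to compound for 48 hours at 5 concentrations. Step 3: Interpolate endpoints linearly; if unreached, use highest concentration. TGI denotes the concentration required for complete inhibition of growth.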
Columns and labels:
Assay in all cases: NCI anticancer screen, dose series, 48 h
786-0 renal = test system: 786-0 renal
A498 renal = test system: A498 renal
A549 NSCLC = test system: A549 NSCLC
ACHN renal = test system: ACHN renal
CCRF-CEM leukemia = test system: CCRF-CEM leukemia
COLO 205 colon = test system: COLO 205 colon
DLD-1 colon = test system: DLD-1 colon
DMS 114 small cell lung = test system: DMS 114 small cell lung
DMS 273 small cell lung = test system: DMS 273 small cell lung
EKVX NSCLC = test system: EKVX NSCLC
HCC-2998 colon = test system: HCC-2998 colon
HCT-116 colon = test system: HCT-116 colon
HCT-15 colon = test system: HCT-15 colon
HL-60(TB) leukemia = test system: HL-60(TB) leukemia
HOP-18 NSCLC = test system: HOP-18 NSCLC
HOP-92 NSCLC = test system: HOP-92 NSCLC
HT29 colon = test system: HT29 colon
IGROV1 ovarian = test system: IGROV1 ovarian
K-562 leukemia = test system: K-562 leukemia
KM12 colon = test system: KM12 colon
LXFL 529 NSCLC = test system: LXFL 529 NSCLC
M14 melanoma = test system: M14 melanoma
M19-MEL melanoma = test system: M19-MEL melanoma
MALME-3M melanoma = test system: MALME-3M melanoma
MOLT-4 leukemia = test system: MOLT-4 leukemia
NCI-H23 lung = test system: NCI-H23 lung
NCI-H460 lung = test system: NCI-H460 lung
OVCAR-3 ovarian = test system: OVCAR-3 ovarian
OVCAR-4 ovarian = test system: OVCAR-4 ovarian
OVCAR-5 ovarian = test system: OVCAR-5 ovarian
OVCAR-8 ovarian = test system: OVCAR-8 ovarian
RPMI-8226 leukemia = test system: RPMI-8226 leukemia
SF-268 CNS = test system: SF-268 CNS
SF-295 CNS = test system: SF-295 CNS
SF-539 CNS = test system: SF-539 CNS
SK-MEL-2 melanoma = test system: SK-MEL-2 melanoma
SK-MEL-28 melanoma = test system: SK-MEL-28 melanoma
SK-MEL-5 melanoma = test system: SK-MEL-5 melanoma
SK-OV-3 ovarian = test system: SK-OV-3 ovarian
SN12C renal = test system: SN12C renal
SNB-75 CNS = test system: SNB-75 CNS
SNB-78 CNS = test system: SNB-78 CNS
TK-10 renal = test system: TK-10 renal
U251 CNS = test system: U251 CNS
UACC-257 melanoma = test system: UACC-257 melanoma
UO-31 renal = test system: UO-31 renal
XF 498 CNS = test system: XF 498 CNS
CAKI-1 renal = test system: CAKI-1 renal
HOP-62 NSCLC = test system: HOP-62 NSCLC
NCI-H226 lung = test system: NCI-H226 lung
NCI-H522 lung = test system: NCI-H522 lung
SR leukemia = test system: SR leukemia
UACC-62 melanoma = test system: UACC-62 melanoma

Measured: TGI

CC12CC3C(CC1SCC(=O)O2)C3(C)C (centres undefined)
not listed: CAKI-1 renal | HOP-62 NSCLC | NCI-H226 lung | NCI-H522 lung | SR leukemia | UACC-62 melanoma
> 100 µM: all other assays above

CCCNC1CC(n2cc(C)c(=O)[nH]c2=O)OC1CO (centres undefined)
not listed: A498 renal | A549 NSCLC | EKVX NSCLC | HCT-15 colon | HOP-18 NSCLC | HT29 colon | KM12 colon | OVCAR-3 ovarian | OVCAR-5 ovarian | OVCAR-8 ovarian | SF-295 CNS | SK-MEL-5 melanoma | TK-10 renal | U251 CNS | UACC-257 melanoma | XF 498 CNS
> 100 µM: all other assays above

Source: PubChem BioAssay (NCI)
